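Step 1: Grow cells in 96-well plates. Step 2: Expose to compound for 48 hours at 5 concentrations. Step 3: Interpolate endpoints linearly; if unreached, use highest concentration. The concentration for 50% growth inhibition is given as GI50. TGI denotes the concentration required for complete inhibition of growth.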

Test systems include 786-0 renal; CCRF-CEM leukemia; HT29 colon; KM12 colon; MDA-MB-435; NCI-H226 lung; PC-3 prostate; SF-295 CNS; SK-MEL-28 melanoma; SNB-19 CNS.
What all share (assay): NCI anticancer screen, dose series, 48 h

Consider `NS(=O)(=O)c1ccc(N=Nc2c(=O)[nH]c3ccc4[nH]cccc4c23)cc1`, for which the GI50 in the assay with 786-0 renal is 0.577 µM; with CCRF-CEM leukemia, 0.202 µM; with HT29 colon, 0.875 µM; in the assay on KM12 colon, 0.792 µM; with MDA-MB-435, 0.553 µM; in the assay with NCI-H226 lung it was 0.317 µM. The GI50 is 0.583 µM in the assay on PC-3 prostate, 0.883 µM in the assay with SF-295 CNS, 0.518 µM with SK-MEL-28 melanoma and 0.428 µM with SNB-19 CNS. Further, the TGI in the assay on 786-0 renal was more than 25 µM; in the assay on CCRF-CEM leukemia, more than 25 µM; with HT29 colon, more than 25 µM; in the assay on KM12 colon it was 4.32 µM; with MDA-MB-435 it was more than 25 µM; with NCI-H226 lung, 3.06 µM. In addition, the TGI with PC-3 prostate is more than 25 µM; in the assay on SF-295 CNS it was more than 25 µM; in the assay with SK-MEL-28 melanoma, 1.64 µM; in the assay on SNB-19 CNS, more than 25 µM.

For `COc1cc[nH]c1/C=C1\C(=O)Nc2ccc([N+](=O)[O-])c(N3CC[C@@H](O)C3)c21`, the GI50 with 786-0 renal was 0.186 µM; in the assay with CCRF-CEM leukemia, 0.0855 µM; in the assay on HT29 colon it was 0.209 µM; with KM12 colon, 0.101 µM; with MDA-MB-435, 0.271 µM; in the assay on NCI-H226 lung, 0.169 µM. For the same compound, the GI50 is 0.235 µM in the assay with PC-3 prostate, 0.128 µM in the assay on SF-295 CNS, 0.277 µM in the assay with SK-MEL-28 melanoma and 0.495 µM in the assay on SNB-19 CNS. Also, the TGI in the assay with 786-0 renal was determined as 3.56 µM; in the assay with CCRF-CEM leukemia, 1.51 µM; with HT29 colon it was 1.56 µM; in the assay on KM12 colon, 2.22 µM; with MDA-MB-435, 0.907 µM; in the assay on NCI-H226 lung it was 1.69 µM. For the same compound, the TGI with PC-3 prostate was determined as 2.15 µM; in the assay on SF-295 CNS, 3.4 µM; with SK-MEL-28 melanoma, 1.2 µM; in the assay with SNB-19 CNS, 5.68 µM.

As for `CCN1C(=O)N(CC)C2C1NN=c1s/c(=C\c3cnc(C)n3C)c(=O)n12` (stereo not given), the GI50 in the assay on 786-0 renal is 6.54 µM; with CCRF-CEM leukemia, 2.75 µM; in the assay with KM12 colon it was 1.22 µM; in the assay on MDA-MB-435, 0.321 µM; in the assay with NCI-H226 lung it was more than 100 µM; in the assay with PC-3 prostate it was 2.07 µM. The GI50 with SF-295 CNS was 1.21 µM; with SK-MEL-28 melanoma, 5.2 µM; with SNB-19 CNS, 3.94 µM. The TGI in the assay on 786-0 renal was more than 100 µM; in the assay on CCRF-CEM leukemia, more than 100 µM; in the assay on KM12 colon it was more than 100 µM; in the assay on MDA-MB-435, 1.36 µM; in the assay with NCI-H226 lung, more than 100 µM; with PC-3 prostate it was more than 100 µM. The TGI in the assay on SF-295 CNS, in the assay on SK-MEL-28 melanoma and in the assay on SNB-19 CNS was more than 100 µM throughout.

Turning to `O=C(N/N=C/c1cccc(O)c1)c1ccc(C(F)(F)F)nc1Nc1cccc(C(F)(F)F)c1`, the GI50 with 786-0 renal is 1.92 µM; in the assay on CCRF-CEM leukemia, 0.258 µM; in the assay with HT29 colon, 3.47 µM; in the assay with KM12 colon, 1.69 µM; in the assay with MDA-MB-435, 1.65 µM; in the assay with NCI-H226 lung, 1.28 µM. Also, the GI50 in the assay on PC-3 prostate is 1.66 µM; in the assay on SK-MEL-28 melanoma it was 1.89 µM; in the assay on SNB-19 CNS, 2.51 µM. Besides, the TGI with 786-0 renal stood at 5.17 µM; in the assay on CCRF-CEM leukemia it was 1.08 µM; in the assay with HT29 colon, 11.2 µM; in the assay with KM12 colon it was 5.22 µM; with MDA-MB-435, 4.23 µM; in the assay with NCI-H226 lung, 3.51 µM. The TGI worked out at 7.67 µM with PC-3 prostate, 10.1 µM in the assay with SK-MEL-28 melanoma and 12 µM in the assay with SNB-19 CNS.

Take `COc1ccc2c(c1)O/C(=C\c1ccc([N+](=O)[O-])s1)C2=O`: the GI50 in the assay with 786-0 renal is 11.4 µM; with CCRF-CEM leukemia it was 0.478 µM; in the assay on MDA-MB-435, more than 100 µM; in the assay with NCI-H226 lung, more than 31.3 µM; in the assay on PC-3 prostate, 1.81 µM; in the assay on SK-MEL-28 melanoma it was 17.1 µM. Also, the GI50 in the assay with SNB-19 CNS is more than 22 µM. Besides, the TGI in the assay with 786-0 renal was more than 71.6 µM; in the assay with CCRF-CEM leukemia it was more than 100 µM; in the assay with MDA-MB-435, more than 100 µM; in the assay with NCI-H226 lung, more than 100 µM; in the assay with PC-3 prostate, more than 100 µM; with SF-295 CNS, more than 47.4 µM. Also, the TGI with SK-MEL-28 melanoma and in the assay on SNB-19 CNS was more than 100 µM throughout.

For `CCCNC(=O)Nc1ccc2c(c1)Cc1cc(N(CCCl)CCCl)ccc1-2`, the TGI with 786-0 renal was more than 100 µM; in the assay on CCRF-CEM leukemia, more than 100 µM; with HT29 colon, 17.8 µM; with KM12 colon it was 56.5 µM; with MDA-MB-435 it was 68.9 µM; in the assay with PC-3 prostate, more than 100 µM. Besides, the TGI in the assay with SF-295 CNS was determined as 44.2 µM; with SK-MEL-28 melanoma, 35.7 µM; in the assay on SNB-19 CNS it was 94.8 µM.

For the compound `Nc1nc(Cl)c2ncn(Cc3ccc(-c4ccc(CCl)cc4)cc3)c2n1`, the GI50 is 12.9 µM in the assay with 786-0 renal; 11.3 µM with HT29 colon; 27.7 µM in the assay on KM12 colon; 14.6 µM in the assay on MDA-MB-435; 3.47 µM in the assay with NCI-H226 lung; 9.08 µM with PC-3 prostate. Moreover, the GI50 was 17.4 µM in the assay on SF-295 CNS, 14.7 µM with SK-MEL-28 melanoma and 38.4 µM in the assay on SNB-19 CNS. In addition, the TGI in the assay on 786-0 renal was more than 100 µM; with HT29 colon, 43.1 µM; with KM12 colon, more than 100 µM; with MDA-MB-435, 36.3 µM; in the assay with NCI-H226 lung it was 17.9 µM; with PC-3 prostate it was more than 100 µM. Also, the figures for the TGI with SF-295 CNS, in the assay with SK-MEL-28 melanoma and in the assay with SNB-19 CNS were more than 100 µM, 33.7 µM and more than 100 µM, respectively.

For the compound `N#CC1C(=O)NC(=O)C(C#N)C1c1ccc(Cl)c(Cl)c1` (stereo not given), the TGI is 41.7 µM in the assay on 786-0 renal; 31.9 µM in the assay on CCRF-CEM leukemia; 33 µM in the assay with HT29 colon; more than 100 µM with KM12 colon; 49 µM in the assay with MDA-MB-435; more than 100 µM in the assay on PC-3 prostate. Also, the TGI in the assay with SF-295 CNS, in the assay on SK-MEL-28 melanoma and in the assay on SNB-19 CNS was more than 100 µM in each case.

Take `C=C1C(OCCO)OC2O[C@]3(C)CCC4[C@H](C)CCC1C24OO3` (stereo not given in full): the GI50 was 24.5 µM in the assay with 786-0 renal; 4.92 µM in the assay with CCRF-CEM leukemia; 7.54 µM with HT29 colon; 6.04 µM with KM12 colon; 12.9 µM in the assay with MDA-MB-435; 4.11 µM in the assay on PC-3 prostate. Further, the GI50 in the assay with SF-295 CNS, with SK-MEL-28 melanoma and in the assay on SNB-19 CNS was more than 100 µM throughout. Besides, the TGI with 786-0 renal was more than 100 µM; with CCRF-CEM leukemia it was 28.4 µM; in the assay on HT29 colon it was more than 100 µM; in the assay with KM12 colon it was more than 100 µM; in the assay on MDA-MB-435, 83.6 µM; in the assay on PC-3 prostate it was more than 100 µM. Besides, the TGI with SF-295 CNS, in the assay on SK-MEL-28 melanoma and in the assay on SNB-19 CNS was more than 100 µM in each case.

(Values after PubChem BioAssay (NCI).)
